Data from patent US8247211B2, “Glycopeptide antibiotics” (American Cyanamid Company, priority 2001, dated 2012).
Converted amounts (≈) assume the structure as drawn.

Legend:
Escherichia coli = test: In vitro antibacterial evaluation: minimum inhibitory concentration (MIC), broth dilution method; assay type: cell-based; conditions: 5×10^5 CFU/mL, 18 hours at 35° C.
Procedure, shortened: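 Susceptibility determined by NCCLS-recommended broth dilution (M7-A2), Muller-Hinton II […]. Concentration span 64-0.06 μg/mL, inoculum 5×10^5 CFU/mL. Isolates include strains resistant to methicillin, penicillin and/or vancomycin.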

Enterococcus sp. = test: as above; assay type: cell-based; conditions: broth dilution, 5×10^5 CFU/mL, 18 hours at 35° C.
Procedure, shortened: (§1)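 NCCLS M7-A2 broth dilution with Mueller-Hinton II, testing 64-0.06 μg/mL antibiotic against 5×10^5 CFU/mL inocula. Test strains include recent methicillin-, penicillin- or vancomycin-resistant clinical isolates. MIC is the lowest concentration preventing growth.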

Streptococcus sp. = test: as above; assay type: cell-based; conditions: broth dilution, 5×10^5 CFU/mL, 18 hours at 35° C.
Procedure, shortened: as §1

Staphylococcus sp. = test: as above; assay type: cell-based; conditions: for MIC Staphylococcus aureus-SMITH (GC 4543): strain GC 4543; for MIC Staphylococcus haemolyticus (GC 4546): strain GC 4546; for MIC Coagulase Negative Staphylococcus (GC 4547): strain GC 4547; for MIC Coagulase Negative Staphylococcus (GC 4548): strain GC 4548; for MIC Coagulase Negative Staphylococcus (GC 4549): strain GC 4549; for MIC Coagulase Negative Staphylococcus (GC 4551): strain GC 4551; for MIC Coagulase Negative Staphylococcus (ID-3941): strain ID-3941
Procedure, shortened: as §1

[1] = tested on: Staphylococcus aureus-SMITH (GC 4543); test: Acute lethal infection in mice (ED50); assay type: in vivo; conditions: female CD-1 mice, intraperitoneal challenge, intravenous dose 30 min. after infection, 7 day survival ratios
Procedure, shortened: (§2)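 Bacteria suspended in Trypticase Soy Broth or hog gastric mucin are injected intraperitoneally into female CD-1 mice at a dose killing untreated animals within 24-48 hr. Thirty minutes later, test agent is administered intravenously. Survival at day 7 is scored.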

[2] = tested on: Enterococcus faecalis (GC 2246), vancomycin resistant strain; test: Acute lethal infection in mice (ED50); assay type: in vivo; conditions: female CD-1 mice, intraperitoneal challenge, intravenous dose 30 min. after infection, 7 day survival ratios
Procedure, shortened: as §2

[3] = broth dilution, 18 hours at 35° C.

CCCC(CCC)C(=O)OCC1OC(OC2C(CO)OC(Oc3ccc(CC4NC(=O)C(C(C)c5ccccc5)NC(=O)CNC(=O)C(CO)NC(=O)C(C(O)C5CNC(=N)N5C5OC(CO)C(O)C(O)C5O)NC(=O)C(C(O)C5CNC(=N)N5)NC4=O)cc3)C(O)C2O)C(O)C(O)C1O (stereo not drawn) [Example 99c, Cyclo[glycyl-β-methylphenylalanyl-O-[4-O-[6-O-(2-propylpentanoyl)hexopyranosyl]-hexopyranosyl]tyrosyl-3-(2-iminoimidazolidin-4-yl)seryl-3-(3-hexopyranosyl-2-iminoimidazolidin-4-yl)serylseryl]]
MIC Escherichia coli (ATCC 25922) (Escherichia coli): 64 µg/mL (≈ 45 µM)
MIC Enterococccus avium (GC 4558) (Enterococcus sp.): 4 µg/mL (≈ 2.81 µM)
MIC Enterococccus faecalis (ATCC 29212) (Enterococcus sp.): 4 µg/mL (≈ 2.81 µM)
MIC Enterococccus faecalis (GC 4552) (Enterococcus sp.): 4 µg/mL (≈ 2.81 µM)
MIC Enterococccus faecalis (GC 4553) (Enterococcus sp.): 4 µg/mL (≈ 2.81 µM)
MIC Enterococccus faecalis (GC 4554) (Enterococcus sp.): 4 µg/mL (≈ 2.81 µM)
MIC Enterococccus faecium (GC 2243) (Enterococcus sp.): 4 µg/mL (≈ 2.81 µM)
MIC Enterococccus faecium (GC 4556) (Enterococcus sp.): 4 µg/mL (≈ 2.81 µM)
MIC Enterococccus faecium (GC 4557) (Enterococcus sp.): 2 µg/mL (≈ 1.41 µM)
MIC Enterococcus faecalis (GC 2242) (Enterococcus sp.): 4 µg/mL (≈ 2.81 µM)
MIC Streptococcus agalactiae (GC 4564) (Streptococcus sp.): <0.5 µg/mL
MIC Streptococcus pneumoniae (GC 4565) (Streptococcus sp.): <0.5 µg/mL
MIC Streptococcus pyogenes (ID-3187) (Streptococcus sp.): <0.5 µg/mL
MIC Staphylococcus aureus (ATCC 29213) (Staphylococcus sp.; strain ATCC 29213): 1 µg/mL (≈ 0.703 µM)
MIC Staphylococcus aureus (GC 1131) (Staphylococcus sp.; strain GC 1131): 2 µg/mL (≈ 1.41 µM)
MIC Staphylococcus aureus (GC 4541) (Staphylococcus sp.; strain GC 4541): 2 µg/mL (≈ 1.41 µM)
MIC Staphylococcus aureus (GC 4542) (Staphylococcus sp.; strain GC 4542): 1 µg/mL (≈ 0.703 µM)
MIC Staphylococcus aureus-SMITH (GC 4543) (Staphylococcus sp.; 18 hours at 35° C.): 1 µg/mL (≈ 0.703 µM)
MIC Staphylococcus aureus-SMITH (GC 4543) (Staphylococcus sp.; [3]): 1 µg/mL (≈ 0.703 µM)
MIC Staphylococcus aureus (GC 4544) (Staphylococcus sp.; strain GC 4544): 2 µg/mL (≈ 1.41 µM)
MIC Staphylococcus aureus (GC 4545) (Staphylococcus sp.; strain GC 4545): 1 µg/mL (≈ 0.703 µM)
MIC Staphylococcus haemolyticus (GC 4546) (Staphylococcus sp.): 1 µg/mL (≈ 0.703 µM)
MIC Staphylococcus haemolyticus (GC 4546) (Staphylococcus sp.; [3]): 1 µg/mL (≈ 0.703 µM)
MIC Coagulase Negative Staphylococcus (GC 4547) (Staphylococcus sp.): 1 µg/mL (≈ 0.703 µM)
MIC Coagulase Negative Staphylococcus (GC 4547) (Staphylococcus sp.; [3]): 1 µg/mL (≈ 0.703 µM)
MIC Coagulase Negative Staphylococcus (GC 4548) (Staphylococcus sp.): 1 µg/mL (≈ 0.703 µM)
MIC Coagulase Negative Staphylococcus (GC 4548) (Staphylococcus sp.; [3]): 1 µg/mL (≈ 0.703 µM)
MIC Coagulase Negative Staphylococcus (GC 4549) (Staphylococcus sp.): 1 µg/mL (≈ 0.703 µM)
MIC Coagulase Negative Staphylococcus (GC 4549) (Staphylococcus sp.; [3]): 1 µg/mL (≈ 0.703 µM)
MIC Coagulase Negative Staphylococcus (GC 4551) (Staphylococcus sp.): 2 µg/mL (≈ 1.41 µM)
MIC Coagulase Negative Staphylococcus (GC 4551) (Staphylococcus sp.; [3]): 2 µg/mL (≈ 1.41 µM)
MIC Coagulase Negative Staphylococcus (ID-3941) (Staphylococcus sp.): 1 µg/mL (≈ 0.703 µM)
MIC Coagulase Negative Staphylococcus (ID-3941) (Staphylococcus sp.; [3]): 1 µg/mL (≈ 0.703 µM)
median effective dose (ED50), Staphylococcus aureus-SMITH (GC 4543) [1]: 0.52 mg/kg
median effective dose (ED50), Enterococcus faecalis (GC 2246) [2]: 4.3 mg/kg
